Assay results taken from patent US20250230193A1, “CYCLIC COMPOUND HAVING SELECTIVE KRAS INHIBITORY EFFECT ON HRAS AND NRAS” (CHUGAI SEIYAKU KABUSHIKI KAISHA, priority 2022, published 2025).

Legend:
[1] = molecular target: GDP-bound NRAS wild-type protein (Homo sapiens, UniProt P01111); assay: Binding to NRAS by surface plasmon resonance (SPR), Single Cycle Kinetics; conditions: KD ratio, GDP-bound NRAS wild-type vs GDP-bound KRAS wild-type, SPR
[2] = molecular target: GDP-bound HRAS wild-type protein (Homo sapiens, UniProt P01112); assay: Binding to HRAS by surface plasmon resonance (SPR), Single Cycle Kinetics; conditions: KD ratio, GDP-bound HRAS wild-type vs GDP-bound KRAS wild-type, SPR
Sequence of GDP-bound HRAS wild-type protein (P01112 whole entry): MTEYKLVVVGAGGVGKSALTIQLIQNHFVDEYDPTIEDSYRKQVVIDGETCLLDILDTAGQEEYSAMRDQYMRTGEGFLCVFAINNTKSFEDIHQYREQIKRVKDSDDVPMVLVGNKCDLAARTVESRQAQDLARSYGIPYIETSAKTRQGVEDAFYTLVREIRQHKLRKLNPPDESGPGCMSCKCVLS

Sequence of GDP-bound NRAS wild-type protein (P01111 whole entry): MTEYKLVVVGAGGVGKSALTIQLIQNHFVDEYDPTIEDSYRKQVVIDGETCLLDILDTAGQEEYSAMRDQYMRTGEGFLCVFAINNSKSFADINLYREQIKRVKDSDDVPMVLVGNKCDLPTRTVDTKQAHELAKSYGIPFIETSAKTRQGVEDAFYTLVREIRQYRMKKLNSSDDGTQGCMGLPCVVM

For CC[C@H](C)[C@@H]1NC(=O)[C@H](C(C)C)N(C)C(=O)C[C@@H](C(=O)N(C)CC)N(C)C(=O)[C@H](C2CCCC2)N(C)C(=O)C2(CC(C)(C)C2)NC(=O)[C@@H]2C[C@H](C)CN2C(=O)[C@H](CCc2ccc(C(F)(F)F)c(OC)c2)NC(=O)CN(C)C(=O)[C@H](Cc2ccc(C(F)(F)F)cc2)N2CC/C=C\C[C@@H](C2=O)N(C)C(=O)CN(C)C1=O [PP2003], the “NRAS/KRAS (ratio of KD value for NRAS to KD value for KRAS)” value [1] was “A (a compound having 10 or more and less than 20 is denoted as A)” and the “HRAS/KRAS (ratio of KD value for HRAS to KD value for KRAS)” value [2] was “B (a compound having 3 or more and less than 10 is denoted as B)”.

In the case of CC[C@H](C)[C@@H]1NC(=O)[C@H](C(C)C)N(C)C(=O)C[C@@H](C(=O)N(C)C)N(C)C(=O)[C@H](C2CCCC2)N(C)C(=O)C2(CC(C)(C)C2)NC(=O)[C@@H]2C[C@H](C)CN2C(=O)[C@H](CCc2ccc(C(F)(F)F)c(OC)c2)NC(=O)CN(C)C(=O)[C@H](Cc2ccc(C(F)(F)F)cc2)N2CC/C=C\C[C@@H](C2=O)N(C)C(=O)CN(C)C1=O [PP2005], the “NRAS/KRAS (ratio of KD value for NRAS to KD value for KRAS)” value [1] is reported as “A (a compound having 10 or more and less than 20 is denoted as A)” and the “HRAS/KRAS (ratio of KD value for HRAS to KD value for KRAS)” value [2] is reported as “A (a compound having 10 or more and less than 20 is denoted as A)”.

CC[C@H](C)[C@@H]1NC(=O)[C@H](C2CC2)N(C)C(=O)C[C@@H](C(=O)N(C)CC)N(C)C(=O)[C@H](C2CCCC2)N(C)C(=O)C2(CC(C)(C)C2)NC(=O)[C@@H]2C[C@H](C)CN2C(=O)[C@H](CCc2ccc(C(F)(F)F)c(OC)c2)NC(=O)CN(C)C(=O)[C@H](Cc2ccc(C(F)(F)F)cc2)N2CC/C=C\C[C@@H](C2=O)N(C)C(=O)CN(C)C1=O [PP2007] was tested, and the “NRAS/KRAS (ratio of KD value for NRAS to KD value for KRAS)” value [1] was “AA (a compound having 20 or more is denoted as AA)” and the “HRAS/KRAS (ratio of KD value for HRAS to KD value for KRAS)” value [2] was “B (a compound having 3 or more and less than 10 is denoted as B)”.

CCCOC[C@H]1C(=O)N[C@@H]([C@@H](C)CC)C(=O)N(C)CC(=O)N(C)[C@H]2C/C=C\CCN(C2=O)[C@@H](Cc2ccc(C(F)(F)F)cc2)C(=O)N(C)CC(=O)N[C@@H](CCc2cc(F)c(C(F)(F)F)c(F)c2)C(=O)N2C[C@@H](C)C[C@H]2C(=O)NC2(CCC2)C(=O)N(C)[C@@H](C2CCCC2)C(=O)N(C)[C@H](C(=O)N(C)CCC)CC(=O)N1C [PP2008] was tested, and the “NRAS/KRAS (ratio of KD value for NRAS to KD value for KRAS)” value [1] was “A (a compound having 10 or more and less than 20 is denoted as A)” and the “HRAS/KRAS (ratio of KD value for HRAS to KD value for KRAS)” value [2] was “A (a compound having 10 or more and less than 20 is denoted as A)”.

For CC[C@H](C)[C@@H]1NC(=O)[C@H](C2CCC2)N(C)C(=O)C[C@@H](C(=O)N(C)CC)N(C)C(=O)[C@H](C2CCCC2)N(C)C(=O)C2(CC(C)(C)C2)NC(=O)[C@@H]2C[C@H](C)CN2C(=O)[C@H](CCc2ccc(C(F)(F)F)c(OC)c2)NC(=O)CN(C)C(=O)[C@H](Cc2ccc(C(F)(F)F)cc2)N2CC/C=C\C[C@@H](C2=O)N(C)C(=O)CN(C)C1=O [PP2009], the “NRAS/KRAS (ratio of KD value for NRAS to KD value for KRAS)” value [1] was “A (a compound having 10 or more and less than 20 is denoted as A)” and the “HRAS/KRAS (ratio of KD value for HRAS to KD value for KRAS)” value [2] was “A (a compound having 10 or more and less than 20 is denoted as A)”.

In the case of CCCN(C)C(=O)[C@@H]1CC(=O)N(C)[C@@H](CC(F)F)C(=O)N[C@@H]([C@@H](C)CC)C(=O)N(C)CC(=O)N(C)[C@H]2C/C=C\CCN(C2=O)[C@@H](Cc2ccc(C(F)(F)F)cc2)C(=O)N(C)CC(=O)N[C@@H](CCc2ccc(C(F)(F)F)c(OC)c2)C(=O)N2C[C@H](OCC)C[C@H]2C(=O)NC2(CC(C)(C)C2)C(=O)N(C)[C@@H](C2CCCC2)C(=O)N1C [PP2010], the “NRAS/KRAS (ratio of KD value for NRAS to KD value for KRAS)” value [1] is reported as “A (a compound having 10 or more and less than 20 is denoted as A)” and the “HRAS/KRAS (ratio of KD value for HRAS to KD value for KRAS)” value [2] is reported as “B (a compound having 3 or more and less than 10 is denoted as B)”.

For CC[C@H](C)[C@@H]1NC(=O)[C@H](C2CCC2)N(C)C(=O)C[C@@H](C(=O)N(C)C)N(C)C(=O)[C@H](C2CCCC2)N(C)C(=O)C2(CC(C)(C)C2)NC(=O)[C@@H]2C[C@H](C)CN2C(=O)[C@H](CCc2ccc(C(F)(F)F)c(OC)c2)NC(=O)CN(C)C(=O)[C@H](Cc2ccc(C(F)(F)F)cc2)N2CC/C=C\C[C@@H](C2=O)N(C)C(=O)CN(C)C1=O [PP2011], the “NRAS/KRAS (ratio of KD value for NRAS to KD value for KRAS)” value [1] was “A (a compound having 10 or more and less than 20 is denoted as A)” and the “HRAS/KRAS (ratio of KD value for HRAS to KD value for KRAS)” value [2] was “A (a compound having 10 or more and less than 20 is denoted as A)”.

In the case of CCCN(C)C(=O)[C@@H]1CC(=O)N(C)[C@@H](COCC)C(=O)N[C@@H]([C@@H](C)CC)C(=O)N(C)CC(=O)N(C)[C@H]2C/C=C\CCN(C2=O)[C@@H](Cc2ccc(C(F)(F)F)cc2)C(=O)N(C)CC(=O)N[C@@H](CCc2ccc(C(F)(F)F)c(OC)c2)C(=O)N2C[C@H](OCC)C[C@H]2C(=O)NC2(CC(C)(C)C2)C(=O)N(C)[C@@H](C2CCCC2)C(=O)N1C [PP2012], the “NRAS/KRAS (ratio of KD value for NRAS to KD value for KRAS)” value [1] is reported as “AA (a compound having 20 or more is denoted as AA)” and the “HRAS/KRAS (ratio of KD value for HRAS to KD value for KRAS)” value [2] is reported as “A (a compound having 10 or more and less than 20 is denoted as A)”.

With CCCN(C)C(=O)[C@@H]1CC(=O)N(C)[C@@H](CC(F)F)C(=O)N[C@@H]([C@@H](C)CC)C(=O)N(C)CC(=O)N(C)[C@H]2C/C=C\CCN(C2=O)[C@@H](Cc2ccc(C(F)(F)F)cc2)C(=O)N(C)CC(=O)N[C@@H](CCc2ccc(C(F)(F)F)c(OC)c2)C(=O)N2C[C@H](OCC)C[C@H]2C(=O)NC2(CCC2)C(=O)N(C)[C@@H](C2CCCC2)C(=O)N1C [PP2013] the “NRAS/KRAS (ratio of KD value for NRAS to KD value for KRAS)” value [1] was “A (a compound having 10 or more and less than 20 is denoted as A)” and the “HRAS/KRAS (ratio of KD value for HRAS to KD value for KRAS)” value [2] was “B (a compound having 3 or more and less than 10 is denoted as B)”.

CCOC[C@H]1C(=O)N[C@@H]([C@@H](C)CC)C(=O)N(C)CC(=O)N(C)[C@H]2C/C=C\CCN(C2=O)[C@@H](Cc2ccc(C(F)(F)F)cc2)C(=O)N(C)CC(=O)N[C@@H](CCc2ccc(C(F)(F)F)c(OC)c2)C(=O)N2C[C@H](OCC)C[C@H]2C(=O)NC2(CC(C)(C)C2)C(=O)N(C)[C@@H](C2CCCC2)C(=O)N(C)[C@H](C(=O)N(C)CC)CC(=O)N1C [PP2014] was tested, and the “NRAS/KRAS (ratio of KD value for NRAS to KD value for KRAS)” value [1] was “A (a compound having 10 or more and less than 20 is denoted as A)” and the “HRAS/KRAS (ratio of KD value for HRAS to KD value for KRAS)” value [2] was “A (a compound having 10 or more and less than 20 is denoted as A)”.

With CCCN(C)C(=O)[C@@H]1CC(=O)N(C)[C@@H](COCC)C(=O)N[C@@H]([C@@H](C)CC)C(=O)N(C)CC(=O)N(C)[C@H]2C/C=C\CCN(C2=O)[C@@H](Cc2ccc(C(F)(F)F)cc2)C(=O)N(C)CC(=O)N[C@@H](CCc2ccc(C(F)(F)F)c(OC)c2)C(=O)N2C[C@H](OCC)C[C@H]2C(=O)NC2(CCC2)C(=O)N(C)[C@@H](C2CCCC2)C(=O)N1C [PP2015] the “NRAS/KRAS (ratio of KD value for NRAS to KD value for KRAS)” value [1] was “A (a compound having 10 or more and less than 20 is denoted as A)” and the “HRAS/KRAS (ratio of KD value for HRAS to KD value for KRAS)” value [2] was “B (a compound having 3 or more and less than 10 is denoted as B)”.

For CCCOC[C@H]1C(=O)N[C@@H]([C@@H](C)CC)C(=O)N(C)CC(=O)N(C)[C@H]2C/C=C\CCN(C2=O)[C@@H](Cc2ccc(C(F)(F)F)cc2)C(=O)N(C)CC(=O)N[C@@H](CCc2ccc(C(F)(F)F)c(OC)c2)C(=O)N2C[C@H](OCC)C[C@H]2C(=O)NC2(CCC2)C(=O)N(C)[C@@H](C2CCCC2)C(=O)N(C)[C@H](C(=O)N(C)CC)CC(=O)N1C [PP2016], the “NRAS/KRAS (ratio of KD value for NRAS to KD value for KRAS)” value [1] was “A (a compound having 10 or more and less than 20 is denoted as A)” and the “HRAS/KRAS (ratio of KD value for HRAS to KD value for KRAS)” value [2] was “A (a compound having 10 or more and less than 20 is denoted as A)”.

With CCCOC[C@H]1C(=O)N[C@@H]([C@@H](C)CC)C(=O)N(C)CC(=O)N(C)[C@H]2C/C=C\CCN(C2=O)[C@@H](Cc2ccc(C(F)(F)F)cc2)C(=O)N(C)CC(=O)N[C@@H](CCc2ccc(C(F)(F)F)c(OC)c2)C(=O)N2C[C@H](OCC)C[C@H]2C(=O)NC2(CCC2)C(=O)N(C)[C@@H](C2CCCC2)C(=O)N(C)[C@H](C(=O)N(C)CCC)CC(=O)N1C [PP2017] the “NRAS/KRAS (ratio of KD value for NRAS to KD value for KRAS)” value [1] was “A (a compound having 10 or more and less than 20 is denoted as A)” and the “HRAS/KRAS (ratio of KD value for HRAS to KD value for KRAS)” value [2] was “A (a compound having 10 or more and less than 20 is denoted as A)”.

With CCCN(C)C(=O)[C@@H]1CC(=O)N(C)[C@@H](CCOC)C(=O)N[C@@H]([C@@H](C)CC)C(=O)N(C)CC(=O)N(C)[C@H]2C/C=C\CCN(C2=O)[C@@H](Cc2ccc(C(F)(F)F)cc2)C(=O)N(C)CC(=O)N[C@@H](CCc2ccc(C(F)(F)F)c(OC)c2)C(=O)N2C[C@H](OCC)C[C@H]2C(=O)NC2(CCC2)C(=O)N(C)[C@@H](C2CCCC2)C(=O)N1C [PP2018] the “NRAS/KRAS (ratio of KD value for NRAS to KD value for KRAS)” value [1] was “A (a compound having 10 or more and less than 20 is denoted as A)” and the “HRAS/KRAS (ratio of KD value for HRAS to KD value for KRAS)” value [2] was “B (a compound having 3 or more and less than 10 is denoted as B)”.

CCCN(C)C(=O)[C@@H]1CC(=O)N(C)[C@@H](C(C)C)C(=O)N[C@@H]([C@@H](C)CC)C(=O)N(C)CC(=O)N(C)[C@H]2C/C=C\CCN(C2=O)[C@@H](Cc2ccc(C(F)(F)F)cc2)C(=O)N(C)CC(=O)N[C@@H](CCc2ccc(C(F)(F)F)c(OC)c2)C(=O)N2C[C@H](OCC)C[C@H]2C(=O)NC2(CCC2)C(=O)N(C)[C@@H](C2CCCC2)C(=O)N1C [PP2020] was tested, and the “NRAS/KRAS (ratio of KD value for NRAS to KD value for KRAS)” value [1] was “A (a compound having 10 or more and less than 20 is denoted as A)” and the “HRAS/KRAS (ratio of KD value for HRAS to KD value for KRAS)” value [2] was “A (a compound having 10 or more and less than 20 is denoted as A)”.

In the case of CCO[C@@H]1C[C@H]2C(=O)NC3(CCC3)C(=O)N(C)[C@@H](C3CCCC3)C(=O)N(C)[C@H](C(=O)N(C)CC)CC(=O)N(C)[C@@H](C3CC3)C(=O)N[C@@H]([C@@H](C)CC)C(=O)N(C)CC(=O)N(C)[C@H]3C/C=C\CCN(C3=O)[C@@H](Cc3ccc(C(F)(F)F)cc3)C(=O)N(C)CC(=O)N[C@@H](CCc3ccc(C(F)(F)F)c(OC)c3)C(=O)N2C1 [PP2021], the “NRAS/KRAS (ratio of KD value for NRAS to KD value for KRAS)” value [1] is reported as “A (a compound having 10 or more and less than 20 is denoted as A)” and the “HRAS/KRAS (ratio of KD value for HRAS to KD value for KRAS)” value [2] is reported as “B (a compound having 3 or more and less than 10 is denoted as B)”.
